From patent US20130143812A1, “ANTI-INFLAMMATORY DRUG” (SEKISUI MEDICAL CO., LTD., priority 2010, published 2013)

What was measured:
RAW264.7 cells [1] = assay: Expression of M2 macrophage markers in RAW264.7 cells cultured with activin A and SB431542; format: cell-based; settings: SB431542 0.1 to 1 μM added with activin A, 24 hours
Experimental: Activin A (10 ng/mL or 30 ng/mL) and SB431542 (0.1 to 1 μM, Santa Cruz Biotechnology, Inc., sc-204265) were added to RAW264.7 cells in combination as depicted in FIG. 2. Human Recombinant (R&D Systems, 338AC005) was used for activin A. After 24 hours, RNeasy Mini Kit (250) (Qiagen, Cat. Number 74106) was used for recovering the cells to extract RNA. The RNA extracted at step (1) was used for performing a reverse transcription reaction in accordance with the protocol of High Capacity cDNA Reverse Transcription Kit with RNase Inhibitor (ABI) to perform TaqMan PCR. Arginase-1, Mrc2 (mannose receptor 2), and IL-10 were selected as M2 macrophage markers to create respective TaqMan probes.

RAW264.7 cells [2] = assay: Macrophage marker expression in RAW264.7 cells with activin A, activin B or SB431542 and palmitic acid; format: cell-based; settings: for expression level of IL-6 / expression level of MCP-1 / expression level of arginase-1: compared to control
Experimental: (1) Induction of Macrophages by Activin Species Activin A (10 ng/mL), activin B (10 ng/mL), and SB431542 (0.1 to 1 μM) were added to RAW264.7 cells in combination as depicted in FIG. 4. Human Recombinant (R&D Systems, 338AC005) and Recombinant (R&D Systems, 659AB005) were used for activin A and activin B, respectively. After 30 minutes, palmitic acid (a proinflammatory substance) was added to the final concentration of 200 μM and, after eight hours, RNeasy Mini Kit (250) (Qiagen, Cat. Number 74106) was used for recovering the cells to extract RNA. The RNA extracted at step (1) was used for performing a reverse transcription reaction in accordance with the protocol of High Capacity cDNA Reverse Transcription Kit with RNase Inhibitor (ABI) to perform TaqMan PCR. Arginase-1 was selected as an M2 macrophage marker and IL-6 and MCP-1 were selected as M1 macrophage markers to create respective TaqMan probes. Analysis was performed in the same way as the expression analysis of macrophage markers of Example 1.

RAW264.7 cells [3] = assay: Macrophage marker expression in RAW264.7 cells with activin A, activin B or Fstl3 and palmitic acid; format: cell-based; settings: palmitic acid 200 μM
Experimental: Activin A (10 ng/mL), activin B (10 ng/mL), and Fstl3 (3 to 30 ng/mL) were added to RAW264.7 cells in combination as depicted in FIG. 5. Human Recombinant (R&D Systems, 338AC005), Recombinant (R&D Systems, 659AB005), and Follistatin-like 3 Recombinant (R&D Systems, 1255F3025) were used for activin A, activin B, and Fstl3, respectively. After 30 minutes, palmitic acid (a proinflammatory substance) was added to the final concentration of 200 μM and, after eight hours, RNeasy Mini Kit (250) (Qiagen, Cat. Number 74106) was used for recovering the cells to extract RNA.
Analysis was performed in the same way as Example 4. For each of palmitic acid, activin species, and Fstl3, the expression level is represented by a ratio when a measurement value of each marker relative to a measurement value of cyclophilin A in non-additive control is defined as one.

RAW264.7 cells [4] = assay: Expression of M2 and M1 macrophage markers in RAW264.7 cells cultured with activin A or activin B (TaqMan PCR); format: cell-based; settings: 10 or 30 ng/mL added individually, 8 hours
Experimental: Each of activin A (10 ng/mL or 30 ng/mL) and activin B (10 ng/mL or 30 ng/mL) was individually added to RAW264.7 cells. Human Recombinant (R&D Systems, 338AC005) and Recombinant (R&D Systems, 659AB005) were used for activin A and activin B, respectively. After eight hours, RNeasy Mini Kit (250) (Qiagen, Cat. Number 74106) was used for recovering the cells to extract RNA.
The RNA extracted at step (1) was used for performing a reverse transcription reaction in accordance with the protocol of High Capacity cDNA Reverse Transcription Kit with RNase Inhibitor (ABI) to perform TagMan PCR. Arginase-1 was selected as an M2 macrophage marker and IL-6 and MCP-1 were selected as M1 macrophage markers to create respective TaqMan probes. Each of mRNA expression levels is represented by a multiple when an expression level of cyclophilin A mRNA in the same sample is defined as one (hereinafter, the same applies to the examples using TaqMan PCR unless otherwise stated).

db/db mice = assay: Arginase-1 mRNA expression in visceral fat of db/db mice given recombinant adenovirus; format: in vivo; settings: activin expressed by recombinant adenovirus via tail vein once a week for two weeks, compared to control
Source text: (§1) Full-length mouse inhibin βA cDNA or full-length mouse inhibin βB cDNA was amplified by using pcDNA3.1/V5-HisA (Invitrogen) in accordance with the recommended method. The amplified product was subjected to HindIII and EcoRV treatments and used for production of recombinant adenovirus. The recombinant adenovirus of inhibin βA or inhibin βB was produced by using Takara Adenovirus Expression Vector Kit (Takara) in accordance with the recommended method. For negative control, β-galactosidase-gene-containing virus attached to the kit was used. The adenovirus was transfected to HEK293 cells by using CellPhect (registered trademark) Transfection Kit (GE Healthcare) with the calcium phosphate method.
After seven-week-old male db/db mice were adapted for one week, 5.0×10^11 pfu/mL of the recombinant adenovirus was lysed in 150 μL of PBS and administered from the tail vein once a week for two weeks. Visceral fat was collected on seventh day after the second administration for performing a reverse transcription reaction in accordance with the protocol of High Capacity cDNA Reverse Transcription Kit with RNase Inhibitor (ABI) and the expression analysis of arginase-1 was performed with TaqMan PCR.

[5] = tested on: high-fat diet-fed B6 mice; assay: Arginase-1 mRNA expression in visceral fat of high-fat diet-fed B6 mice given recombinant adenovirus; format: in vivo; settings: twelve-week high-fat diet B6 mice, activin expressed by recombinant adenovirus via tail vein once a week for two weeks
Source text: as §1
After five-week-old male B6 mice were adapted with normal diet for one week, high-fat diet was fed for twelve weeks. The recombinant adenovirus (5.0×10^11 pfu/mL) was lysed in 150 μL of PBS and administered to mice in the 18th week from the tail vein once a week for two weeks. Visceral fat was collected on seventh day after the second administration for performing reverse transcription in accordance with the protocol of High Capacity cDNA Reverse Transcription Kit with RNase Inhibitor (ABI) and the expression analysis of arginase-1 was performed with TaqMan PCR.

[6] = tested on: high-fat diet-fed B6 mice; assay: Glucose tolerance test (GTT) in high-fat diet-fed B6 mice given recombinant adenovirus; format: in vivo; settings: activin expressed by recombinant adenovirus, glucose 1.0 mg/g-BW into abdominal cavity
Experimental: Adenovirus was produced in the same way as the production of recombinant adenovirus in Example 3.
After five-week-old male B6 mice were adapted with normal diet for one week, high-fat diet was fed for twelve weeks. The recombinant adenovirus (5.0×10^11 pfu/mL) was lysed in 150 μL of PBS and administered to mice in the 18th week from the tail vein once a week for two weeks. A glucose tolerance test (GTT) was performed on seventh day after the second administration.
The GTT was performed as follows. Into the abdominal cavities of mice fasted for 16 hours from the previous day of the test, 1.0 mg/g-BW of glucose (diluted by physiological saline) was administered. Serum was separated from collected whole blood and glucose concentration was measured by Glucose-Test Wako (manufactured by Wako Pure Chemical Industries).

RAW264.7 cells [7] = assay: Arginase-1 expression in RAW264.7 cells with activin A, Fstl3, anti-Fstl3 antibody or mouse IgG and palmitic acid; format: cell-based; settings: Fstl3 30 ng/mL present with activin A 10 ng/mL, palmitic acid 200 μM
Experimental: Fstl3 (30 ng/mL), an anti-Fstl3 antibody or mouse IgG (0.3 to 10 μg/mL), and activin A (10 ng/mL) were added to RAW264.7 cells in combination as depicted in FIG. 6. Human Recombinant (R&D Systems, 338AC005), Recombinant (R&D Systems, 659AB005), and Follistatin-like 3 Recombinant (R&D Systems, 1255F3025) were used for activin A, activin B, and Fstl3, respectively. After 30 minutes, palmitic acid (a proinflammatory substance) was added to the final concentration of 200 μM and, after eight hours, RNeasy Mini Kit (250) (Qiagen, Cat. Number 74106) was used for recovering the cells to extract RNA.
The RNA extracted at step (1) was used for performing a reverse transcription reaction in accordance with the protocol of High Capacity cDNA Reverse Transcription Kit with RNase Inhibitor (ABI) to perform TaqMan PCR. Arginase-1 was selected as an M2 macrophage marker to create TaqMan probes.

[8] = SB431542 0.1 to 1 μM with palmitic acid 200 μM, absence of activin species
[9] = SB431542 0.1 to 1 μM, activin A 10 ng/mL and palmitic acid 200 μM present
[10] = SB431542 0.1 to 1 μM, activin B 10 ng/mL and palmitic acid 200 μM present
[11] = SB431542 only (0.1 to 1 μM), without palmitic acid
[12] = palmitic acid 200 μM, absence of activin species, 8 hours
[13] = activin 10 ng/mL, palmitic acid 200 μM, 8 hours

## NC(=O)c1ccc(-c2nc(-c3ccc4c(c3)OCO4)c(-c3ccccn3)[nH]2)cc1 [SB431542]
RAW264.7 cells [1]
  activin A-induced increase in expression of arginase-1, Mrc2 and IL-10: reduced to the same level as control
RAW264.7 cells [2]; [8]
  expression level of IL-6, effect of SB431542: constantly increased depending on the additive concentration
  palmitic acid-induced increase of MCP-1 expression, effect of SB431542: not changed
RAW264.7 cells [2]; [9]
  expression level of IL-6, effect of SB431542: constantly increased depending on the additive concentration
  expression level of arginase-1, effect of SB431542: reduced depending on the additive concentration
  palmitic acid-induced increase of MCP-1 expression, effect of SB431542: not changed
RAW264.7 cells [2]; [10]
  expression level of IL-6, effect of SB431542: constantly increased depending on the additive concentration
  expression level of arginase-1, effect of SB431542: reduced depending on the additive concentration
  palmitic acid-induced increase of MCP-1 expression, effect of SB431542: not changed
RAW264.7 cells [2]; [11]
  expression level of IL-6: not changed or were slightly changed
  expression level of MCP-1: not changed or were slightly changed
  expression level of arginase-1: not changed or were slightly changed

## CCCCCCCCCCCCCCCC(=O)O [palmitic acid]
RAW264.7 cells [2]; [12]
  expression level of IL-6: remarkably increased
  expression level of MCP-1: remarkably increased
  expression level of arginase-1: not changed or was slightly changed
RAW264.7 cells [3]; 8 hours
  expression of IL-6, effect of palmitic acid: increased
RAW264.7 cells [3]; regardless of the presence of activin species, change negligible
  expression of MCP1, effect of palmitic acid: increased

B1: activin B: Recombinant (R&D Systems, 659AB005); in Examples 3 and 7 expressed by inhibin βB recombinant adenovirus (protein, UniProt P09529 293-407, looked up)
Inhibin beta B chain: GLECDGRTNLCCRQQFFIDFRLIGWNDWIIAPTGYYGNYCEGSCPAYLAGVPGSASSFHTAVVNQYRMRGLNPGTVNSCCIPTKLSTMSMLYFDDEYNIVKRDVPNMIVEECGCA
modifications: Inhibin beta B chain homodimer
RAW264.7 cells [4]
  expression level of IL-6 (M1 macrophage marker): not changed
  expression level of MCP-1 (M1 macrophage marker): not changed
RAW264.7 cells [4]; mRNA relative to cyclophilin A
  expression of arginase-1 (M2 macrophage marker): remarkably increased
db/db mice
  expression of arginase-1 in visceral fat: remarkably increased
[5]
  expression level of arginase-1 in visceral fat: similarly increased
RAW264.7 cells [2]; activin 10 ng/mL present, palmitic acid 200 μM added, 8 hours
  expression level of arginase-1: remarkably increased
RAW264.7 cells [2]; [13]
  expression level of MCP-1, effect of activin addition: not changed
  expression of IL-6, effect of activin addition: slightly reduced
[6]
  glucose metabolism in glucose tolerance test (GTT): improved glucose metabolism

B2: Fstl3: Follistatin-like 3 Recombinant (R&D Systems, 1255F3025); binds to activins and inhibits binding to their receptor (protein, UniProt O95633 27-263, looked up)
Follistatin-related protein 3: MGSGNPAPGGVCWLQQGQEATCSLVLQTDVTRAECCASGNIDTAWSNLTHPGNKINLLGFLGLVHCLPCKDSCDGVECGPGKACRMLGGRPRCECAPDCSGLPARLQVCGSDGATYRDECELRAARCRGHPDLSVMYRGRCRKSCEHVVCPRPQSCVVDQTGSAHCVVCRAAPCPVPSSPGQELCGNNNVTYISSCHMRQATCFLGRSIGVRHAGSCAGTPEEPPGGESAEEEENFV
RAW264.7 cells [3]; Fstl3 30 ng/mL added concurrently with activin A 10 ng/mL
  expression of arginase-1, effect of Fstl3: reduced
RAW264.7 cells [3]; Fstl3 3 to 30 ng/mL
  expression level of MCP1, effect of FSTL3: not changed
RAW264.7 cells [7]
  expression level of arginase-1, effect of FSTL3: reduced to the same level as the control
